ChEMBL document CHEMBL1153401, “Role of the hydrogen bonding heteroatom-Lys53 interaction between the p38alpha mitogen-activated protein (MAP) kinase and pyridinyl-substituted 5-membered heterocyclic ring inhibitors” (J Med Chem, 2009)

Biological target: Mitogen-activated protein kinase 14 (Homo sapiens, UniProt Q16539)
Assay: Inhibition of p38alpha MAP kinase

Chain of Mitogen-activated protein kinase 14 (Q16539 whole entry): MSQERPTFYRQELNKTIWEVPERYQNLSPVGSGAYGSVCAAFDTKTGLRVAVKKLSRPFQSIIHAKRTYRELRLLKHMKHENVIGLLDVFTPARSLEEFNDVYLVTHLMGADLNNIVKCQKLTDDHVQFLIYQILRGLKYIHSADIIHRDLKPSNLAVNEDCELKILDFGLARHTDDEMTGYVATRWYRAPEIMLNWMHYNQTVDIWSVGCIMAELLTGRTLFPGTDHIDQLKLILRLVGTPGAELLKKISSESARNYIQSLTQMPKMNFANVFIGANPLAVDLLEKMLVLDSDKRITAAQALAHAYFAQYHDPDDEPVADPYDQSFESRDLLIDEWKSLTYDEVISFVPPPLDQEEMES

| IC50 [nM] | SMILES |
| --- | --- |
| 79 | Fc1ccc(-c2nc[nH]c2-c2ccncc2)cc1 |
| 4050 | Fc1ccc(C2=C(c3ccncc3)CCC2)cc1 |
| 420 | Fc1ccc(-c2[nH]ccc2-c2ccncc2)cc1 |
| 740 | Fc1ccc(-c2occc2-c2ccncc2)cc1 |
